From patent US7465719B2, “Carbamic acid compounds comprising an ester or ketone linkage as HDAC inhibitors” (Topotarget UK Limited, priority 2003, dated 2008)
Read-outs that look alike come from different tables or passages of the source.

Experiments:
[1] = tested on: JURKAT (human T-cell line); experiment: Secondary assay: cell proliferation WST-1, Jurkat; assay type: cell-based; conditions: Jurkat cells, 48 hours, read-out: Cell Proliferation Inhibition WST-1 (IC50 unless otherwise specified) Jurkat
Description: (§1) Compounds with HDAC inhibition activity, as determined using the primary assay, were subsequently evaluated using secondary cell-based assays. […] Assay Method
(§2) Cells were plated in 96-well plates at 3-10×10^3 cells/well in 100 μL of culture medium. The following day, different concentrations of candidate compounds were added and the cells incubated at 37° C. for 48 hours. Subsequently, 10 μL/well of WST-1 reagent was added and the cells reincubated for 1 hour. After the incubation time, absorbance was measured.
(§3) WST-1 is a tetrazolium salt which is cleaved to formazan dye by cellular enzymes. An expansion in the number of viable cells results in an increase in the overall activity of mitochondrial dehydrogenases in the sample. This augmentation in the enzyme activity leads to an increase in the amount of formazan dye formed, which directly correlates to the number of metabolically active cells in the culture. The formazan dye produced is quantified by a scanning multiwell spectrophotometer by measuring the absorbance of the dye solution at 450 nm wavelength (reference wavelength 690 nm).
Percent activity (% activity) in reducing the number of viable cells was calculated for each test compound as: % activity={(S^C−B)/(S^o−B)}×100 wherein S^C denotes signal measured in the presence of the compound being tested, S^o denotes signal measured in the absence of the compound being tested, and B denotes the background signal measured in blank wells containing medium only. […] IC50 values were calculated using the software package Prism 3.0 (GraphPad Software Inc., San Diego, Calif.), setting top value at 100 and bottom value at 0.

[2] = tested on: HeLa cells; experiment: Secondary assay: cell proliferation WST-1, HeLa; assay type: cell-based; conditions: Homo sapiens, read-out: Cell Proliferation Inhibition WST-1 (IC50 unless otherwise specified) HeLa
Text: Compounds with HDAC inhibition activity, as determined using the primary assay, were subsequently evaluated using secondary cell-based assays. The following cell lines were used: • HeLa—Human cervical adenocarcinoma cell line (ATCC ref. No. CCL-2). • K11—HPV E7 transformed human keratinocyte line provided by Pidder Jansen-Duerr, Institut für Biomedizinische Alternsforschung, Innsbruck, Austria. • NHEK-Ad—Primary human adult keratinocyte line (Cambrex Corp., East Rutherford, N.J., USA). • JURKAT—Human T-cell line (ATCC no. TIB-152). Assay Method
Cells were cultured, exposed to candidate compounds, and incubated for a time, and the number of viable cells was then assessed using the Cell Proliferation Reagent WST-1 from Boehringer Mannheim (Cat. No. […]), described below.
as §2, §3
(§4) IC50 values were calculated using the software package Prism 3.0 (GraphPad Software Inc., San Diego, Calif.), setting top value at 100 and bottom value at 0.

[3] = tested on: K11 (HPV E7 transformed human keratinocyte line); experiment: Secondary assay: cell proliferation WST-1, K11; assay type: cell-based; conditions: read-out: Cell Proliferation Inhibition WST-1 (IC50 unless otherwise specified) K11
Description: as §1, §2, §3, §4

[4] = tested on: NHEK-Ad (primary human adult keratinocyte line); experiment: Secondary assay: cell proliferation WST-1, NHEK-Ad; assay type: cell-based; conditions: read-out: Cell Proliferation Inhibition WST-1 (IC50 unless otherwise specified) NHEK-AD
Description: as §1, §2, §3, §4

[5] = tested on: HDAC (HeLa cell extract); experiment: Primary assay: deacetylase activity, HeLa cell extract as source of HDAC; assay type: biochemical, human; conditions: read-out: HDAC Inhibition (IC50 unless otherwise specified) HeLa
Description: Decreased activity indicates increased inhibition by the test compound.
Alternatively, the activity of the compounds as HDAC inhibitors was determined using a commercially available fluorescent assay kit: (Fluor de Lys™, BioMol Research Labs, Inc., Plymouth Meeting, USA).
Extensive comparative studies have shown that Primary Assay (1) and Primary Assay (2), discussed above, yield equivalent results. Primary Assay results reported herein are (a) exclusively from (1); (b) exclusively from (2); or (c) from both (1) and (2).
The HeLa cell extract was made from HeLa cells (ATCC Ref. No. CCL-2) by freeze-thawing three times in 60 mM Tris Cl pH 8.0, 450 mM NaCl, 30% glycerol. Two cell volumes of extraction buffer were used, and particulate material was centrifuged out (20800 g, 4° C., 10 minutes). The supernatant extract having deacetylase activity was aliquotted and frozen for storage.

[6] = Homo sapiens, Keratinocyte, 48 h
[7] = Homo sapiens, Keratinocyte, K11 cells, 48 hours

## O=C(NO)c1ccc(OC(=O)C2(c3c(F)cccc3Cl)CCCCC2)cc1 [PX119101, 4-[(Hydroxyamino)carbonyl]phenyl 1-(2-chloro-6-fluorophenyl) -cyclohexanecarboxylate]
other
  melting point: 101 to 102 °C

## O=C(NO)c1ccc(OC(=O)C2(c3ccc(O)cc3)CCCCC2)cc1 [PX119103, 4-[(Hydroxyamino)carbonyl]phenyl 1-(4-hydroxyphenyl) -cyclohexanecarboxylate]
other
  melting point: 93 to 94 °C

## CCOc1ccc(C2(C(=O)Oc3ccc(C(=O)NO)cc3)CCCCC2)cc1 [PX118925, 4-[(Hydroxyamino)carbonyl]phenyl 1-(4-ethoxyphenyl) -cyclohexanecarboxylate]
other
  melting point: 140 to 143 °C

## oxamflatin [reference compound]
[1]
  IC50: 170 nM

## O=C(NO)c1ccc(OC(=O)C2(c3ccc(F)cc3)CCCCC2)cc1 [PX119065, 4-[(Hydroxyamino)carbonyl]phenyl 1-(4-fluorophenyl) -cyclohexanecarboxylate]
other
  melting point: 150 to 151 °C

## CC(/C=C/C(=O)NO)=C\[C@@H](C)C(=O)c1ccc(N(C)C)cc1 [TSA, Trichostatin A, reference compound]
[2]; HeLa, 48 h
  IC50: 350 nM
[3]; [6]
  IC50: 380 nM
[4]; [6]
  IC50: 200 nM
[1]; Homo sapiens
  IC50: 42 nM

## O=C(NO)c1ccc(OC(=O)C2(c3cccc(F)c3)CCCCC2)cc1 [PX119061, 4-[(Hydroxyamino)carbonyl]phenyl 1-(3-fluorophenyl) -cyclohexanecarboxylate]
other
  melting point: 150 to 151 °C

## O=C(NO)c1ccc(OC(=O)C2(c3ccc(OC(=O)c4ccccc4)cc3)CCCCC2)cc1 [PX119085, 4-[1-({4-[(Hydroxyamino)carbonyl]phenoxy}carbonyl)cyclohexyl]-phenyl benzoate]
other
  melting point: 114 to 115 °C

## COc1ccc(C2(C(=O)Oc3ccc(C(=O)NO)cc3)CCCC2)cc1 [PX119063, 4-[(Hydroxyamino)carbonyl]phenyl 1-(4-methoxyphenyl) -cyclopentanecarboxylate]
[5]
  IC50: 85 nM
[2]; HeLa cells, 48 hours
  IC50: 4900 nM
other
  melting point: 143 to 144 °C

## O=C(NO)c1ccc(OC(=O)C2(c3ccccc3F)CCCCC2)cc1 [PX119062, 4-[(Hydroxyamino)carbonyl]phenyl 1-(2-fluorophenyl) -cyclohexanecarboxylate]
other
  melting point: 125 to 126 °C

## Nc1ccccc1NC(=O)c1ccc(CNC(=O)OCc2cccnc2)cc1 [MS-275, reference compound]
[3]; K11 cells, 48 hours
  IC50: 9160 nM
[4]; NHEK-AD cells, 48 hours
  IC50: 3100 nM
[1]
  IC50: 365 nM

## COC(=O)c1ccc(C2(C(=O)Oc3ccc(C(=O)NO)cc3)CCCCC2)cc1 [PX118480, Methyl 4-[1-({4-[(hydroxyamino)carbonyl]phenoxy}carbonyl) -cyclohexyl]benzoate]
[5]
  IC50: 25 nM
[2]; HeLa cells, 48 hours
  IC50: 7900 nM
[3]; [7]
  IC50: 1650 nM
[1]; Homo sapiens
  IC50: 780 nM
other
  melting point: 129 to 131 °C

## CC(C)(C)OC(=O)c1ccc(C2(C(=O)Oc3ccc(C(=O)NO)cc3)CCCCC2)cc1 [PX118926, tert-Butyl 4-[1-({4-[(hydroxyamino)carbonyl]phenoxy}-carbonyl)cyclohexyl]benzoate]
other
  melting point: 143 to 147 °C (dec.)

## CC(C)(C)C(=O)Oc1ccc(C2(C(=O)Oc3ccc(C(=O)NO)cc3)CCCCC2)cc1 [PX119086, 4-[(Hydroxyamino)carbonyl]phenyl 1-{4-[(2,2-dimethylpropanoyl)oxy]-phenyl}-cyclohexane-carboxylate]
other
  melting point: 124 to 125 °C

## O=C(NO)c1ccc(OC(=O)C2(c3ccccc3)CCCCC2)cc1 [PX118479, 4-[(Hydroxyamino)carbonyl]phenyl 1-phenylcyclohexanecarboxylate]
[5]
  IC50: 52 nM
[2]; HeLa cells, 48 hours
  IC50: 13700 nM
[3]; [7]
  IC50: 21300 nM
[1]; Homo sapiens
  IC50: 1250 nM
other
  melting point: 142 to 144 °C

## Cc1ccc(C2(C(=O)Oc3ccc(C(=O)NO)cc3)CCCCC2)cc1 [PX118966, 4-[(Hydroxyamino)carbonyl]phenyl 1-(4-methylphenyl) -cyclohexanecarboxylate]
other
  melting point: 59 to 60 °C

## O=C(NO)c1ccc(OC(=O)C2(c3ccc(F)cc3Cl)CCCCC2)cc1 [PX119064, 4-[(Hydroxyamino)carbonyl]phenyl 1-(2-chloro-4-fluorophenyl) -cyclohexanecarboxylate]
other
  melting point: 164 to 165 °C

## O=C(NO)c1ccc(OC(=O)C2(c3ccc(Cl)cc3)CCCCC2)cc1 [PX119059, 4-[(Hydroxyamino)carbonyl]phenyl 1-(4-chlorophenyl) -cyclohexanecarboxylate]
other
  melting point: 145 to 146 °C

## CC(=O)Oc1ccc(C2(C(=O)Oc3ccc(C(=O)NO)cc3)CCCCC2)cc1 [PX118959, 4-[(Hydroxyamino)carbonyl]phenyl 1-[4-(acetyloxy)phenyl]-cyclohexanecarboxylate]
other
  melting point: 69 °C

## COc1ccc(C2(C(=O)Oc3ccc(C(=O)NO)cc3)CCCCC2)cc1 [PX118478, 4-[(Hydroxyamino)carbonyl]phenyl 1-(4-methoxyphenyl)-cyclohexanecarboxylate]
[5]
  IC50: 23 nM
[2]; HeLa cells, 48 hours
  IC50: 4600 nM
[3]; [7]
  IC50: 13600 nM
[1]; Homo sapiens
  IC50: 500 nM
other
  melting point: 127 to 129 °C

## O=C(O)c1ccc(C2(C(=O)Oc3ccc(C(=O)NO)cc3)CCCCC2)cc1 [PX119102, 4-[1-({4-[(Hydroxyamino)carbonyl]phenoxy}carbonyl)cyclohexyl]-benzoic acid]
other
  melting point: 169 to 170 °C
